Cli rat, Cli human and Kp data for three compounds are collected here from patent publication US20240327406A1, “POTASSIUM CHANNEL MODULATORS” (Autifony Therapeutics Limited, priority 2021, published 2024).

The nature of series [1]: In vitro metabolic stability, rat liver microsomes. The format is in vitro ADME. The following applies: CLint expressed as mL/min/g liver. Here is the method:
(§1) The objective of this study was to determine metabolic stability of test items in rat and human liver microsomes. Verapamil and dextromethorphan were used as positive controls for microsomal incubation.
(§2) Incubation medium was prepared by combining 11.2 mL of potassium phosphate monobasic and 38.8 mL of potassium phosphate dibasic, diluted to 1 L with water. Cryopreserved microsomes were thawed and kept on ice until use. Microsomes were then diluted in incubation to a protein concentration of 0.56 mg/mL. […]
(§3) NADPH regenerating system solution was prepared by dissolving 1.7 mg of NADP, 7.8 mg of G6P and 6 units of G6P-Dehydrogenase in 1 mL of 2% sodium bicarbonate solution (prepared by dissolving 20 g of NaHCO3 in 1 L of water).
(§4) Test compounds were separately dissolved in DMF to obtain 10 mM stock solutions that were further diluted in water/acetonitrile 50/50 (v/v) to obtain the corresponding 50 μM working solutions. Verapamil and dextromethorphan were dissolved in DMF in order to obtain a 10 mM verapamil solution and 10 mM dextromethorphan solution. These solutions were then diluted in the incubation medium in order to obtain a 50 μM verapamil working solution and a 50 μM dextromethorphan working solution.
(§5) 800 μL-aliquots of NADPH regenerating system were pre-warmed at 37° C. for 5 minutes. 5 μL of 50 µM test compounds, verapamil or dextromethorphan were added to 445 μL of the 0.56 mg/mL microsomes solution and the incubation mixture was pre-warmed in a 96 deep well 2 mL plate (incubation plate) at 37° C. for 5 minutes. The incubation reactions were initiated by adding 50 μL of pre-warmed NADPH regenerating system to the incubation mixtures. 50 μL aliquots were taken from incubation mixtures at: 0, 3, 6, 9, 15, and 30 minutes and the reactions were stopped by adding 100 μL of aceronitrile with the corresponding internal standard. Samples were then diluted with 120 μL of water (final organic solvent percentage at 37%) and centrifuged at 3000 rpm for 10 minutes, prior the LC-MS/MS analysis.
(§6) Metabolic stability was calculated from the peak area ratio of the remaining test compound with internal standard versus time. The intrinsic clearance (CLint) was determined from the first order elimination constant k (min^−1) (obtained from GraphPad by plotting the natural logarithm of the peak area ratio of the remaining test item with internal standard versus time), using the actual volume of the incubation V (mL), the amount of hepatocytes in the incubation M (million cells) and the hepatocellularity number per a liver Hn (120 for human).
A general note: Liver microsomes are a subcellular fraction often used to study metabolism.

A short description of series [2]: In vitro metabolic stability, human liver microsomes. It is filed as in vitro ADME. The following applies: CLint expressed as mL/min/g liver. Here is the method:
as §1, §2, §3, §4, §5, §6

The nature of series [3]: Determination of in vivo pharmacokinetic parameters (blood and brain concentrations). The following applies: male, rat. Here is the method:
Adult male rats (Charles River, Italy) are dosed with test compound orally at 1 mg/kg (5 ml/kg, in 5% v/v DMSO, 0.5% w/v HPMC in water) and intravenously at 0.5 mg/kg (2 ml/kg, in 5% v/v DMSO 40% w/v PEG400 in saline). After oral administration, blood samples are collected under deep Isofluorane anesthesia from the portal vein and heart of each rat (1 rat per time point). After intravenous administration, serial blood samples are collected from the lateral tail vein of each rat. Blood and brain samples are collected at a single timepoint of 0.5 h after dose administration for these animals. In all cases, blood samples are collected into potassium EDTA tubes.
A further group of rats (n=1 per test compound) receive a single intravenous administration of the PgP transport inhibitor, Elacridar (3 mg/kg) shortly before the oral administration of the test compound at 1 mg/kg, as above.
Blood and brain samples can be assayed for test compound concentration using a method based on protein precipitation with acetonitrile followed by HPLC/MS-MS analysis with an optimized analytical method.
The concentrations of test compound in blood (expressed as ng/ml) and brain (expressed as ng/g) at the different time points following either oral or intravenous dosing are analysed using a non-compartmental pharmacokinetic model using WinNonLin Professional version 4.1. The following parameters are derived:
Intravenous dosing: Maximum concentration over time (Cmax), integrated concentration over time (AUC), clearance (Clb), volume of distribution (Vss), half-life (t1/2) and Brain/Heart Blood conc @0.5 hr.
Oral dosing: Cmax, time of maximum concentration (Tmax), AUC, bioavailability (F %), fraction absorbed (Fa %), blood to brain ratio (AUC B/B), and Fold-change in AUC B/B in the presence of Elacridar.

Regarding `Cc1ccc(Oc2ccc(-n3c(=O)[nH]c4cccnc43)cn2)cc1OC(F)(F)F` [Example 4, 3-[6-[4-methyl-3-(trifluoromethoxy)phenoxy]-3-pyridyl]-1H-imidazo[4,5-b]pyridin-2-one], in series [1], the Cli rat was 0.9 mL/min/g. Further, in series [2], the Cli human worked out at 0.7 mL/min/g.

Take `O=c1[nH]c2cccnc2n1-c1cnc(Oc2cccc(OC(F)(F)F)c2)nc1` [Example 17, 3-[2-[3-(trifluoromethoxy)phenoxy]pyrimidin-5-yl]-1H-imidazo[4,5-b]pyridin-2-one]: the Kp in series [3] (brain and blood, oral dosing 1 mg/kg, read-out: AUC B/B (brain/blood) ratio) was 0.45. In addition, in series [3] (brain and heart blood, intravenous, 0.5 mg/kg, 0.5 h after dose administration, read-out: Brain/Heart Blood conc @0.5 hr), the Kp at 0.5 h is 0.76. Besides, in series [1], the Cli rat is given as below 0.5 mL/min/g. In series [2], this compound registered a Cli human below 0.5 mL/min/g.

With `Cc1ccc(Oc2ncc(-n3c(=O)[nH]c4cccnc43)cn2)cc1OC(F)(F)F` [Example 32, 3-[2-[4-methyl-3-(trifluoromethoxy)phenoxy]pyrimidin-5-yl]-1H-imidazo[4,5-b]pyridin-2-one], the Cli rat in series [1] was determined as 0.9 mL/min/g. In series [2], this compound had a Cli human of 0.8 mL/min/g.
